Laboratory results reported in patent publication US11140903B2, “Fungicidal compositions and methods” (Bayer CropScience LP, priority 2010, dated 2021).

Key:
Didymella = conditions: Fungus: Didymella
Sclerotinia = test: Fluopyram efficacy by fungus (Table 3)
Powdery mildews = conditions: Fungus: Powdery mildews
Cylindrocladium = conditions: Fungus: Cylindrocladium
Monilinia = test: Fluopyram efficacy by fungus (Table 3)
Botrytis = test: Fluopyram efficacy by fungus (Table 3)
Sigatoka = test: Fluopyram efficacy by fungus (Table 3)
Alternaria = test: Fluopyram efficacy by fungus (Table 3)
Septoria = conditions: Fungus: Septoria
Venturia = test: Fluopyram efficacy by fungus (Table 3)
[1] = test system: sudden death syndrome (SDS); test: Soybean seed treatment: resistance to SDS (incidence, severity, defoliation); format: in vivo, Glycine max (L.) Merr.
Method: (§1) Soybean seeds (Glycine max (L.) Merr., an indeterminate line) were treated with Trilex® 2000 (7.12% (w/v) trifloxystrobin, 5.69% (w/v) metalaxyl), Gaucho® 600 FS (48.7%, (w/v) imidacloprid), Votivo® 240 FS (21.5%, (w/v) Bacillus firmus strain 1-1582), and fluopyram (41.5%, (w/v)) in the amounts and combinations shown in TABLE 1.
(§2) Seed growth and resistance to SDS were evaluated. Data on the incidence and severity of disease, plant vigor, plant count, plant density, defoliation, and yield were collected. Identification of SDS was based on the visual symptoms described in “Compendium of Soybean Diseases” (Glen Lee Hartman, J. B. Sinclair, and John Clark Rupe, eds. Am. Phytopathological Soc. 1999).
Disease incidence was defined as the percentage of plants in the plot with visible symptoms of SDS. […] The values above each bar in FIG. 1 are the value of that bar along they-axis.
Symptoms of disease severity were determined as percent severity, on a scale of 0% to 100%, by examining the leaf area on the tops of plants and determining the area affected by SDS, expressed as a percentage of the total area. […] The error bars of FIG. 2 represent standard error, and the values above each bar are the value of that bar along the y-axis.
Defoliation was defined as the percentage of plants showing evidence of defoliation in a given plot (i.e., on a scale of 0% to 100%). […] The values above each bar are the value of that bar along the y-axis.

Rusts = test: Fluopyram efficacy by fungus (Table 3)
Text: (§3) Without wishing to be bound by theory, the applicant hypothesizes that the decreased incidence and severity of SDS observed in plants from seed treated with fluopyram contributes to improved vigor and reduced defoliation, which in turn contributes to improved yield.

Colletotrichum = test: Fluopyram efficacy by fungus (Table 3)
Text: as §3

Fusarium = test: Fluopyram efficacy by fungus (Table 3)
Text: as §3

soybean plants = test: Soybean seed treatment: plant vigor, count density and yield; format: in vivo, Glycine max (L.) Merr.
Method: as §1, §2
Vigor ratings, based on visual assessments of plant health, were collected according to the system shown in TABLE 2, with 1 being a healthy and vigorous plant and 6 being extremely low vigor.
The error bars of FIG. 3 represent standard error, and the values within each bar are the value of that bar along the y-axis.
Plant density was calculated as the change in density versus controls. […] The values above or below each bar are the value of that bar along the y-axis.
To determine yield, soybeans were harvested from each plot, weighed, and their moisture content determined. The data from each treatment were normalized to the standard weight of 60 pounds of soybeans at 13% moisture. […] The values above or below each bar are the value of that bar along the y-axis.

Anthracnose = test: Fluopyram efficacy by fungus (Table 3)
Mycosphaerella = test: Fluopyram efficacy by fungus (Table 3)
Pyrenophora = test: Fluopyram efficacy by fungus (Table 3)

O=C(NCCc1ncc(C(F)(F)F)cc1Cl)c1ccccc1C(F)(F)F [Fluopyram, N-{2-[3-chloro-5-(trifluoromethyl)-2-pyridinyl]ethyl}-2-trifluoromethylbenzamide]
Fluopyram Efficacy (Didymella): ++
Fluopyram Efficacy (Sclerotinia): ++++
Fluopyram Efficacy (Powdery mildews): ++++
Fluopyram Efficacy (Cylindrocladium): ++
Fluopyram Efficacy (Monilinia): ++++
Fluopyram Efficacy (Botrytis): ++++
Fluopyram Efficacy (Sigatoka): ++++
Fluopyram Efficacy (Alternaria): +++
Fluopyram Efficacy (Septoria): ++
Fluopyram Efficacy (Venturia): +++
Disease incidence (percentage of plants in the plot with visible symptoms of SDS) ([1]; FIG. 1, compared between seeds with and without fluopyram): significantly reduced disease incidence
Disease severity (percent leaf area affected by SDS) ([1]; FIG. 2, compared between seeds with and without fluopyram): less disease severity
Defoliation (percentage of plants showing evidence of defoliation in a plot) ([1]; FIG. 5, compared between seeds with and without fluopyram): less defoliation
Fluopyram Efficacy (Rusts): +
Fluopyram Efficacy (Colletotrichum): ++
Fluopyram Efficacy (Fusarium; Fungus: Fusarium): +
efficacy of fluopyram against Fusarium (Fusarium; relative to other fungi): low
Count density (change in plant density versus control) (soybean plants; fluopyram alone, 0.17-0.67 mga/seed (columns 4-6), FIG. 4, versus control): decreased count density
Vigor (visual vigor rating, scale 1-6 of Table 2) (soybean plants; soybean seed treatment, FIG. 3): not adversely affected
Percent yield versus control (soybean plants; soybean seed treatment, FIG. 6, normalized to 60 pounds at 13% moisture, versus seeds not treated with fluopyram): greater percent yield
Fluopyram Efficacy (Anthracnose): +
Fluopyram Efficacy (Mycosphaerella): ++++
Fluopyram Efficacy (Pyrenophora): +++
